# Measurements published in article PMC7696671, “P2Y2 and P2X4 Receptors Mediate Ca^2+ Mobilization in DH82 Canine Macrophage Cells” (International Journal of Molecular Sciences, 2020).
# Key:
# Format in all cases: cell-based
# P2Y2 receptor [1] = biological target: T1, P2Y2 receptor (Canis lupus, UniProt A0A8I3MZ62); assay: Fura-2 Ca2+ assay in DH82 cells, inhibition of the response to […] UTP (peak)
# T1 construct: gene P2RY2; endogenous receptor in DH82 canine macrophage cells
# P2Y2 receptor [2] = biological target: T1, P2Y2 receptor; assay: Fura-2 Ca2+ assay in DH82 cells, agonist peak response; blocked by AR-C118925 in Ca2+-free solution
# P2Y2 receptor [3] = biological target: T1, P2Y2 receptor; assay: Fura-2 Ca2+ assay in DH82 cells, agonist peak response
# T1 sequence (A0A8I3MZ62 1-377): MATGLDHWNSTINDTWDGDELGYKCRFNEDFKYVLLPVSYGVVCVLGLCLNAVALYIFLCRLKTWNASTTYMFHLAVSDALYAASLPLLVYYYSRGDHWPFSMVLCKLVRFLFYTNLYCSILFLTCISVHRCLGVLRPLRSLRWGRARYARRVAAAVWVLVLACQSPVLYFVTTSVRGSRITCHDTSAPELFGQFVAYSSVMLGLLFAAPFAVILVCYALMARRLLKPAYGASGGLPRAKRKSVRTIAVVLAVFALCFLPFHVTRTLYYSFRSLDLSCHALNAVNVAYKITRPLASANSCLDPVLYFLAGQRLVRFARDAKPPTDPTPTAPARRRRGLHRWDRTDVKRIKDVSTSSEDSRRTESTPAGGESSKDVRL
IC50 (P2Y2 receptor [1]) [pIC50],Structure (SMILES),other results
6.61 ± 0.09,Cc1ccc2c(c1)C=Cc1cc(C)ccc1C2c1cn(Cc2ccc(C(=O)Nc3nn[nH]n3)o2)c(=O)[nH]c1=S [AR-C118925],
,Nc1ncnc2c1ncn2[C@@H]1O[C@H](COP(=O)(O)OP(=O)(O)OP(=O)(O)O)[C@@H](O)[C@H]1O [ATP],Peak Ca^2+ Response / pEC50 (P2Y2 receptor [2]): 5.88 ± 0.05 pEC50
,O=c1ccn([C@@H]2O[C@H](CO[P@@](=O)(O)O[P@@](=O)(O)OP(=O)(O)O)[C@@H](O)[C@H]2O)c(=O)[nH]1 [UTP],Peak Ca^2+ Response / pEC50 (P2Y2 receptor [3]): 6.16 ± 0.09 pEC50
3.70 ± 0.05,Cc1ccc(C(=O)Nc2ccc(S(=O)(=O)O)c3cc(S(=O)(=O)O)cc(S(=O)(=O)O)c23)cc1NC(=O)c1cccc(NC(=O)Nc2cccc(C(=O)Nc3cc(C(=O)Nc4ccc(S(=O)(=O)O)c5cc(S(=O)(=O)O)cc(S(=O)(=O)O)c45)ccc3C)c2)c1 [suramin],
